Here are results for nine molecules from PubChem BioAssay (NCI).

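Growth conditions: 96-well plates. Treatment: test compound, 48 hours, 5 concentrations. Analysis: linear interpolation between bracketing concentrations; unreached endpoints set to highest concentration. Here, GI50 denotes the concentration required for 50% inhibition of growth. TGI denotes the concentration required for complete inhibition of growth.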

Some test systems named below: ACHN renal; CAKI-1 renal; HCT-15 colon; HOP-92 NSCLC; M14 melanoma; MALME-3M melanoma; NCI-H226 lung; OVCAR-3 ovarian; SF-295 CNS; SNB-19 CNS.
Assay in all cases: NCI tumour cell line growth inhibition, 48 h

`Cn1cc(C2=C(c3ccc(OC[C@@H](O)CO)cc3)C(=O)NC2=O)c2ccccc21`: the GI50 in the experiment on ACHN renal, in the experiment on CAKI-1 renal, in the experiment on HCT-15 colon, in the experiment with HOP-92 NSCLC, in the experiment with M14 melanoma and in the experiment with MALME-3M melanoma was greater than 25 µM throughout. The GI50 with NCI-H226 lung, in the experiment with OVCAR-3 ovarian, in the experiment with SF-295 CNS and with SNB-19 CNS was greater than 25 µM in each case. In addition, the TGI in the experiment on ACHN renal, in the experiment with CAKI-1 renal, in the experiment with HCT-15 colon, in the experiment with HOP-92 NSCLC, with M14 melanoma and in the experiment on MALME-3M melanoma was greater than 25 µM each time. Moreover, the TGI in the experiment with NCI-H226 lung, in the experiment on OVCAR-3 ovarian, with SF-295 CNS and in the experiment with SNB-19 CNS was greater than 25 µM each time.
On to `COc1cc2c(c(OC)c1OC)-c1ccc(NCc3ccccc3)c(=O)cc1[C@@H](NC(C)=O)CC2`, for which the GI50 is 1.39 µM in the experiment on ACHN renal; 3.23 µM in the experiment with CAKI-1 renal; 1.09 µM in the experiment with HCT-15 colon; 0.318 µM in the experiment on HOP-92 NSCLC; 0.359 µM in the experiment with M14 melanoma; 0.72 µM with MALME-3M melanoma. The GI50 with NCI-H226 lung was 1.01 µM; in the experiment on OVCAR-3 ovarian, 0.309 µM; in the experiment with SF-295 CNS it was 0.617 µM; with SNB-19 CNS it was 0.638 µM. Also, the TGI in the experiment with ACHN renal was greater than 66.6 µM; in the experiment on CAKI-1 renal it was 45.8 µM; with HCT-15 colon, greater than 48.4 µM; in the experiment with HOP-92 NSCLC it was 4.1 µM; in the experiment on M14 melanoma it was 23.2 µM; in the experiment on MALME-3M melanoma, 40.2 µM. The TGI is 17.1 µM in the experiment on NCI-H226 lung, 2.82 µM in the experiment with OVCAR-3 ovarian, 18.3 µM in the experiment with SF-295 CNS and greater than 100 µM with SNB-19 CNS.
Turning to `Cn1c(-c2nonc2N)nc2cnccc21`, the GI50 in the experiment on ACHN renal is greater than 25 µM; in the experiment on CAKI-1 renal, 13.7 µM; with HCT-15 colon, greater than 25 µM; with HOP-92 NSCLC, 8.73 µM; in the experiment with M14 melanoma it was greater than 25 µM; with MALME-3M melanoma, greater than 25 µM. Besides, the GI50 with NCI-H226 lung, in the experiment with OVCAR-3 ovarian, in the experiment with SF-295 CNS and in the experiment on SNB-19 CNS was greater than 25 µM each time. The TGI with ACHN renal, in the experiment with CAKI-1 renal, with HCT-15 colon, with HOP-92 NSCLC, in the experiment on M14 melanoma and in the experiment with MALME-3M melanoma was greater than 25 µM each time. Moreover, the TGI with NCI-H226 lung, in the experiment on OVCAR-3 ovarian, with SF-295 CNS and in the experiment on SNB-19 CNS was greater than 25 µM throughout.
For the molecule `CN(C)c1ccc(/C=C2\C[N+](C)(C)C/C(=C\c3ccc(N(C)C)cc3)C2=O)cc1`, the TGI in the experiment with ACHN renal was greater than 100 µM; in the experiment on CAKI-1 renal it was greater than 100 µM; in the experiment with HCT-15 colon it was greater than 100 µM; in the experiment on HOP-92 NSCLC, 78.9 µM; with M14 melanoma, 74.8 µM; with MALME-3M melanoma, 46.4 µM. Also, the TGI in the experiment on NCI-H226 lung was 90.8 µM; in the experiment with OVCAR-3 ovarian, 17.2 µM; in the experiment with SF-295 CNS, greater than 100 µM; in the experiment on SNB-19 CNS, 45.4 µM.
Regarding `CC[n+]1ccc2c(c1)C(=O)c1nccc3c1c-2nc1ccccc13`, the GI50 is 1.13 µM in the experiment with ACHN renal; 2.1 µM with CAKI-1 renal; 2.86 µM with HCT-15 colon; 1.45 µM in the experiment on HOP-92 NSCLC; 0.943 µM in the experiment with M14 melanoma; 0.762 µM in the experiment with MALME-3M melanoma. The GI50 in the experiment on NCI-H226 lung was 1.13 µM; in the experiment on OVCAR-3 ovarian, 0.783 µM; in the experiment with SF-295 CNS, 0.634 µM; in the experiment with SNB-19 CNS, 0.212 µM. For the same molecule, the TGI is greater than 15.5 µM in the experiment with ACHN renal; greater than 33.3 µM in the experiment on CAKI-1 renal; greater than 33.3 µM in the experiment on HCT-15 colon; 7.02 µM in the experiment with HOP-92 NSCLC; 4.38 µM in the experiment with M14 melanoma; 2.03 µM in the experiment on MALME-3M melanoma. Further, the TGI in the experiment on NCI-H226 lung worked out at 5.51 µM; with OVCAR-3 ovarian, 2.92 µM; with SF-295 CNS, 3.76 µM; with SNB-19 CNS, 0.856 µM.
For the molecule `O=C(O)c1cc(S(=O)(=O)N=NC=C2c3ccccc3N(O)c3ccccc32)ccc1O`, the TGI in the experiment with ACHN renal is 59.6 µM; with CAKI-1 renal, greater than 100 µM; with HCT-15 colon it was 21.2 µM; in the experiment on HOP-92 NSCLC, 30.1 µM; in the experiment on M14 melanoma, 79.2 µM; in the experiment with MALME-3M melanoma, 50.3 µM. Also, the TGI in the experiment on NCI-H226 lung is 72.4 µM; in the experiment on OVCAR-3 ovarian it was greater than 100 µM; in the experiment on SF-295 CNS, 20.1 µM; with SNB-19 CNS, greater than 100 µM.
As for `O=C1NC(=O)C2C(=O)NC(=O)C1C2(c1ccccc1)c1ccc(Cl)cc1` (stereo not drawn), the TGI in the experiment on ACHN renal, in the experiment with CAKI-1 renal, in the experiment with HCT-15 colon, with HOP-92 NSCLC, in the experiment with M14 melanoma and in the experiment with MALME-3M melanoma was greater than 100 µM throughout. Further, the TGI in the experiment on NCI-H226 lung, with OVCAR-3 ovarian, in the experiment with SF-295 CNS and in the experiment on SNB-19 CNS was greater than 100 µM throughout.
As to `OC(c1cccc(C(F)(F)F)c1)c1cnccc1NC1CCCCCC1` (stereo not drawn), the GI50 in the experiment with ACHN renal was 1.69 µM; in the experiment on CAKI-1 renal, 1.55 µM; in the experiment on HCT-15 colon, 1.81 µM; in the experiment with HOP-92 NSCLC, 1.32 µM; with M14 melanoma it was 1.8 µM; in the experiment with MALME-3M melanoma it was 1.51 µM. Besides, the GI50 in the experiment on NCI-H226 lung is 2.76 µM; in the experiment with OVCAR-3 ovarian, 2.35 µM; in the experiment on SF-295 CNS it was 1.52 µM; in the experiment on SNB-19 CNS, 1.83 µM. The TGI was 3.24 µM in the experiment on ACHN renal; 3.85 µM in the experiment with CAKI-1 renal; 3.54 µM with HCT-15 colon; 3.88 µM in the experiment with HOP-92 NSCLC; 3.64 µM in the experiment with M14 melanoma; 2.94 µM with MALME-3M melanoma. Also, the TGI with NCI-H226 lung came to 16.6 µM; with OVCAR-3 ovarian, 6.23 µM; in the experiment with SF-295 CNS, 3.06 µM; with SNB-19 CNS, 4.08 µM.
`COc1cccc(-c2nn(-c3ccccc3)cc2-c2ccnc(NCCCNS(=O)(=O)c3cccc(F)c3)c2)c1`: the GI50 in the experiment with ACHN renal is 3.56 µM; with CAKI-1 renal it was 6.16 µM; with HCT-15 colon it was 2.89 µM; with HOP-92 NSCLC, 2.42 µM; in the experiment with M14 melanoma, 3.3 µM; in the experiment with MALME-3M melanoma it was 5.16 µM. Moreover, the values for the GI50 in the experiment with NCI-H226 lung, with OVCAR-3 ovarian and in the experiment with SF-295 CNS were 6.75 µM, 4.88 µM and 2.94 µM, respectively. In addition, the TGI in the experiment with ACHN renal is greater than 100 µM; in the experiment with CAKI-1 renal, greater than 100 µM; with HCT-15 colon, greater than 100 µM; with HOP-92 NSCLC it was 9.63 µM; in the experiment on M14 melanoma, greater than 100 µM; in the experiment with MALME-3M melanoma it was greater than 100 µM. Moreover, the TGI in the experiment on NCI-H226 lung, in the experiment with OVCAR-3 ovarian and in the experiment on SF-295 CNS was greater than 100 µM each time.
